The source of these data is patent US8691753B2 (priority 2009, dated 2014).

Type in all cases: biochemical
For assay [1], the target named is MMP-3h (Homo sapiens (Human), UniProt P08254). The assay can be described thus: Inhibition constant (Ki) on MMP-3h. The settings on record: read-out: Ki MMP-3h; human MMP-3. In a few lines:
(§1)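 Ki values were determined against the human enzymes using a previously published inhibition protocol.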

Assay [2] concerns the target MMP-8h (Homo sapiens (Human), UniProt P22894). The experiment in a line: Inhibition constant (Ki) on MMP-8h. The conditions noted are these: read-out: Ki MMP-8h; human MMP-8.
Assay [3] concerns the target MMP-10h (Homo sapiens (Human), UniProt P09238). The assay can be described thus: Inhibition constant (Ki) on MMP-10h. The settings on record: read-out: Ki MMP-10h; human MMP-10.
The subject of assay [4] is human MMPs. The experiment in a line: Inhibition of the panel of human MMPs (overall statements, selectivity). The settings on record: for inhibitory activity toward MMPs (in words): summary of table I; for selectivity factor F = Ki MMP-x/Ki MMP-12: other human MMPs versus MMP-12.
Assay [5] deals with MMP-14h (Homo sapiens (Human), UniProt P50281). The experiment in a line: Inhibition constant (Ki) on MMP-14h. The settings on record: read-out: Ki MMP-14h; human MMP-14. The essentials: as §1
The target in assay [6] is MMP-9h (Homo sapiens (Human), UniProt P14780). The assay can be described thus: Inhibition constant (Ki) on MMP-9h. The conditions noted are these: read-out: Ki MMP-9h; human MMP-9. In a few lines: as §1
Assay [7] concerns the target MMP-13h (Homo sapiens (Human), UniProt P45452). The assay can be described thus: Inhibition constant (Ki) on MMP-13h. The conditions noted are these: read-out: Ki MMP-13h; human MMP-13. The essentials:
as §1

The target of assay [8] is MMP-7h (Homo sapiens (Human), UniProt P09237). The experiment in a line: Inhibition constant (Ki) on MMP-7h. The settings on record: read-out: Ki MMP-7h; human MMP-7. The source says:
(§2) The inhibition constant Ki of these compounds has been determined according to the protocol described by Devel et al, 2006, J. Biol. Chem. (7).
(§3) In this table I and also in table II below, “h” corresponds to human. All of the compounds have therefore been evaluated on human MMPs.

The target of assay [9] is MMP-2h (Homo sapiens (Human), UniProt P08253). The assay can be described thus: Inhibition constant (Ki) on MMP-2h. The settings on record: read-out: Ki MMP-2h; human MMP-2. In a few lines: as §1
Assay [10] addresses MMP-1h (Homo sapiens (Human), UniProt P03956). The assay can be described thus: Inhibition constant (Ki) on MMP-1h. The settings on record: read-out: Ki MMP-1h; human MMP-1.
From the text: as §2, §3

For assay [11], the target named is MMP-12h (Homo sapiens (Human), UniProt P39900). The experiment in a line: Inhibition constant (Ki) on MMP-12h. The conditions noted are these: read-out: Ki MMP-12h; human MMP-12.
Sequence of MMP-12h (P39900 106-470): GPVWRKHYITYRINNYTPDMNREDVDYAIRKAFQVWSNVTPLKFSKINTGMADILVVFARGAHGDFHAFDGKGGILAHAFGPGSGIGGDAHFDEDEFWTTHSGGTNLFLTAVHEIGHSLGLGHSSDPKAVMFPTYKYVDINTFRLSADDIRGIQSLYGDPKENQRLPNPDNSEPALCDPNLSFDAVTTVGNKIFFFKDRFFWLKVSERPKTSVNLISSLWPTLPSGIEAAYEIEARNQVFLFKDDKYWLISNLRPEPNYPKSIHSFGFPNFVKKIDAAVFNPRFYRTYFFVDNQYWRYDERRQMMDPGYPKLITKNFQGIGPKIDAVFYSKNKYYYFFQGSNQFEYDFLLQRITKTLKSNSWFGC

Sequence of MMP-1h (P03956 100-469): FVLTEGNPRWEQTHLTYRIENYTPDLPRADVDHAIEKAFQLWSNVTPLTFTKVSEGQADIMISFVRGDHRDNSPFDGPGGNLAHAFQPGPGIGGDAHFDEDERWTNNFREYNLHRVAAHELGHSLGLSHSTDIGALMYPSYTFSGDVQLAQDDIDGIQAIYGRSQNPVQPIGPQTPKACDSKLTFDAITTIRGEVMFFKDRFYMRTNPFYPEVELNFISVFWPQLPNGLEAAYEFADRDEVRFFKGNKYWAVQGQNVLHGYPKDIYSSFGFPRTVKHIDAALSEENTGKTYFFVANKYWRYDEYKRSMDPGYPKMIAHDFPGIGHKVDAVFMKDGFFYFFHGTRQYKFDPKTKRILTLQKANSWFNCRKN
Sequence of MMP-8h (P22894 101-467): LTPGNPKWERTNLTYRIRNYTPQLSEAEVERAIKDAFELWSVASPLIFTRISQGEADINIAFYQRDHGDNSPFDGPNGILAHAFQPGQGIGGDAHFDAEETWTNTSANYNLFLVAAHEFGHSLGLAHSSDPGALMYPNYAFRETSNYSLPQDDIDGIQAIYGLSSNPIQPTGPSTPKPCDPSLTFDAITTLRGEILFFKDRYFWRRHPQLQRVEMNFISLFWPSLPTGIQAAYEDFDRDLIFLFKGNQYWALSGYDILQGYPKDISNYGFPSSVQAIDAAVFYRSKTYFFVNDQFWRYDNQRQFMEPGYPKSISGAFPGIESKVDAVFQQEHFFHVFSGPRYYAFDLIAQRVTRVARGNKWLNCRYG
Sequence of MMP-9h (P14780 94-707): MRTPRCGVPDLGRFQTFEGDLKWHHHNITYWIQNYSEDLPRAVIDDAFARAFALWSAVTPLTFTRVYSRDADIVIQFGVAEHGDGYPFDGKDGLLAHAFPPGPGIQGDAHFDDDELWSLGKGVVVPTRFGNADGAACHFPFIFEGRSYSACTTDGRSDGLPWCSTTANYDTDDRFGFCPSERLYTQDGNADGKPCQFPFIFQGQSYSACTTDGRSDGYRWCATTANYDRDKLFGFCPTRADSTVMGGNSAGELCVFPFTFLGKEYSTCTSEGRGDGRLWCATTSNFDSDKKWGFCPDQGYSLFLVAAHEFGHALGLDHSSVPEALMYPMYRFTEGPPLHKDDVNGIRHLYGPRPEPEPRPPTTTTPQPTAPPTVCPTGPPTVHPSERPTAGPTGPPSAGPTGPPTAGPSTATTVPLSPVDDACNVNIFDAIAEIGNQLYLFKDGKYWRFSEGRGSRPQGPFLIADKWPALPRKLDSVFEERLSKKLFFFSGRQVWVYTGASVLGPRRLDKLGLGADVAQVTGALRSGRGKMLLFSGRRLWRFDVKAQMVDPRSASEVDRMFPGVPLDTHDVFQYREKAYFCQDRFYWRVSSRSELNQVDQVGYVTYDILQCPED
Sequence of MMP-7h (P09237 95-267): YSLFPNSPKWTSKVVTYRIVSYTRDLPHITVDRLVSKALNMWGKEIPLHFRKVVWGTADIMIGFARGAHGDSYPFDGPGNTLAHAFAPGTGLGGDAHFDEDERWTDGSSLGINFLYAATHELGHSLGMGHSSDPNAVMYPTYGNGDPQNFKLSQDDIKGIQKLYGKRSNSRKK
Sequence of MMP-10h (P09238 99-476): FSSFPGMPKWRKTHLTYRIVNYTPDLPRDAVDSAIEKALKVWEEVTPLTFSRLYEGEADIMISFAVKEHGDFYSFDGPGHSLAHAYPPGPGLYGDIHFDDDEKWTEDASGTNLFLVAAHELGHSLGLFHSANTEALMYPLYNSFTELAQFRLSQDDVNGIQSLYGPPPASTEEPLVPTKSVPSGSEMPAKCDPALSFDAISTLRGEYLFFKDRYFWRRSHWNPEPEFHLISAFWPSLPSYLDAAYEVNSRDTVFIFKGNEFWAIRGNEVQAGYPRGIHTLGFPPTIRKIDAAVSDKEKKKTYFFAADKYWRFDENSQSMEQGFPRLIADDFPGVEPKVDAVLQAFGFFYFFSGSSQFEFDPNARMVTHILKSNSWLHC
Sequence of MMP-2h (P08253 110-660): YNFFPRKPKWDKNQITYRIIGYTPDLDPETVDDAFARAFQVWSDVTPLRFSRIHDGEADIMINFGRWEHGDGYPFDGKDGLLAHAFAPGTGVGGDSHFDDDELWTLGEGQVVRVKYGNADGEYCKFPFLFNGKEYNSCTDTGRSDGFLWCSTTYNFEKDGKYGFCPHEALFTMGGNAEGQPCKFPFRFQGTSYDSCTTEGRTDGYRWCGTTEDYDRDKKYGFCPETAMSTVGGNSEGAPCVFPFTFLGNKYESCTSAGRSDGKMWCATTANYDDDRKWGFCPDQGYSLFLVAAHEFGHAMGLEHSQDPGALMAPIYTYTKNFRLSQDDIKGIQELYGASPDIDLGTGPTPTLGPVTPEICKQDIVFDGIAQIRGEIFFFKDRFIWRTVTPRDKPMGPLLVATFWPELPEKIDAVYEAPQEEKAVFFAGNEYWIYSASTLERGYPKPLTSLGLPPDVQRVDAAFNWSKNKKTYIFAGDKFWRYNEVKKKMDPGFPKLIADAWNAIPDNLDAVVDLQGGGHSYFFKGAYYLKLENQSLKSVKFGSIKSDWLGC
Sequence of MMP-3h (P08254 100-477): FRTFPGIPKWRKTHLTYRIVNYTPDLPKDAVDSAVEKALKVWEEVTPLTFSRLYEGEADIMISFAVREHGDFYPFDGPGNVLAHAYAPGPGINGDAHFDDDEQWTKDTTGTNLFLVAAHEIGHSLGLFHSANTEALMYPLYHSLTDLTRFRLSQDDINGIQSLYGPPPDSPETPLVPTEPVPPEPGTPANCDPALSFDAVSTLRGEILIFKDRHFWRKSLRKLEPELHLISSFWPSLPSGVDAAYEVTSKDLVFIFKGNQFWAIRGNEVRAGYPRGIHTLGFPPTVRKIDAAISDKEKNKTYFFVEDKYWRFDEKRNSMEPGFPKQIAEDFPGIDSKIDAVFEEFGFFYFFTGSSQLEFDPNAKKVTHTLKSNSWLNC

`NC(=O)[C@H](CCC(=O)O)NC(=O)[C@H](CCC(=O)O)NC(=O)CCc1cc(-c2ccc(-c3cccc(Cl)c3)cc2)no1` [Compound 3, (S)-5-amino-4-((S)-4-carboxy-2-(3-(3-(3′-chlorobiphenyl-4-yl)isoxazol-5-yl)propanamido)butanamido)-5-oxopentanoic acid]: the inhibition constant (Ki) (usually the dissociation constant of the complex between target and ligand, obtained from inhibition or displacement) in assay [1] is 0.062 µM; in assay [2], 0.181 µM; in [3] it was 0.047 µM; in assay [5], over 1 µM; in [6] it was 0.565 µM; in assay [7], 0.04 µM. In addition, the results for the Ki in assay [8], in [9] and in [10] were over 1 µM, 0.076 µM and over 10 µM, respectively. Besides, the “inhibitory activity toward MMPs (in words)” value in assay [4] was “quite a powerful inhibitor of MMPs 2, 3, 10, 12 and 13”.

Take `NC(=O)[C@H](CCC(=O)O)NC(=O)[C@H](CCC(=O)O)NC(=O)CCc1csc(-c2ccccc2)n1` [Compound 27, (S)-5-amino-4-((S)-4-carboxy-2-(3-(2-phenylthiazol-4-yl)propanamido)butanamido)-5-oxopentanoic acid]: the Ki was over 5 µM in assay [11]; over 1 µM in assay [1]; over 1 µM in assay [2]; over 5 µM in [3]; over 5 µM in assay [5]; over 5 µM in assay [6]. For the same compound, the values for the Ki in assay [7] and in assay [9] were 0.9 µM and over 1 µM, respectively. Moreover, the “inhibitory activity toward MMPs (in words)” value in [4] is on record as “do not have any inhibitory activity”.

In the case of `NC(=O)[C@H](CCC(=O)O)NC(=O)[C@H](CCC(=O)O)NC(=O)CCc1noc(-c2ccccc2)n1` [Compound 26, (S)-5-amino-4-((S)-4-carboxy-2-(3-(5-phenyl-1,2,4-oxadiazol-3-yl)propanamido)butanamido)-5-oxopentanoic acid], the inhibitory constant (Ki) is over 1 µM in [11]; over 5 µM in assay [1]; over 5 µM in [2]; over 5 µM in assay [3]; over 5 µM in [5]; over 1 µM in assay [6]. Also, the inhibitory constant (Ki) in assay [7] was over 1 µM; in assay [9] it was over 5 µM. The “inhibitory activity toward MMPs (in words)” value in assay [4] is “do not have any inhibitory activity”.

As to `NC(=O)CC[C@H](NC(=O)[C@H](CCC(=O)O)NC(=O)CCc1ccc(-c2cc(-c3ccccc3)cs2)cc1)C(N)=O` [Compound 99, (S)-5-((S)-1,5-diamino-1,5-dioxopentan-2-ylamino)-5-oxo-4-(3-(4-(4-phenylthiophen-2-yl)phenyl)propanamido)pentanoic acid], the Ki was 0.0054 µM in [11]; over 10 µM in assay [1]; over 1 µM in assay [2]; over 1 µM in assay [3]; over 1 µM in assay [5]; over 5 µM in assay [6]. The Ki in [7] is 0.522 µM; in assay [8] it was over 10 µM; in assay [9], over 1 µM; in assay [10] it was over 10 µM. The “selectivity factor F = Ki MMP-x/Ki MMP-12” value in [4] is over 100.

For `NC(=O)[C@H](CCCC(=O)O)NC(=O)[C@H](CCC(=O)O)NC(=O)CCc1ccc(-c2cc(-c3ccccc3)cs2)cc1` [Compound 103, (S)-6-amino-5-((S)-4-carboxy-2-(3-(4-(4-phenylthiophen-2-yl)phenyl)propanamido)butanamido)-6-oxohexanoic acid], the Ki was 0.0029 µM in [11]; over 5 µM in [1]; 0.656 µM in assay [2]; 0.845 µM in assay [3]; over 1 µM in assay [5]; over 5 µM in [6]. In addition, the Ki was 0.563 µM in assay [7], over 5 µM in assay [8], over 1 µM in [9] and over 10 µM in assay [10]. Further, the “selectivity factor F = Ki MMP-x/Ki MMP-12” value in assay [4] is over 100.
